Key:
[1] = tested on: Salmonella thyphimurium; assay: Growth of Salmonella thyphimurium in cells-free plasma; type: cell-based; settings: plasma alone as source of nutrition (FIG. 8)
Text: (§1) Whole blood or its factions were inoculated with pathogenic bacteria. Growth of the bacteria at room temperature was followed under different atmospheres (gas environments ). The blood fractions were platelets in plasma (PRP); concentrated platelets (PC) as currently stored in blood banks after removal of about three quarters of the plasma and the cell-free blood plasma.
FIG. 8 compares the growth of Salmonella thyphimurium in cells-free plasma under AIR, N2 and CO.

[2] = tested on: Staphilococcus aereus; assay: Growth of inoculated Staphilococcus aereus in platelets stored as PRP; type: cell-based; settings: 20-24° C., inoculated at 18 CFU/ml, compared with air (FIG. 6)
Description: (§2) PC fractions were identically prepared from CO pretreated or untreated blood by consecutive centrifugation in a sterile environment using blood bank conditions. Bicarbonate (4% of PC volume) is than added from a stock solution of 750 mM while agitation to yield a final bicarbonate concentration of 30 mM. […] Alternatively, rather than applying a vacuum, the containers were flushed for 10 min. with sterile CO while agitating the containers, which were then sealed. The containers were allowed to stay at room temperature of 20-24° C.PRP platelets were treated similarly.
(§3) Control blood samples were packed under air in the same containers without any additional treatment allowing air transfer. In some experiments control of inert gas like nitrogen were used to exchange the air in the same manner as CO. […]
(§4) For FIGS. 2-6, platelets were stored as PRP with agitation at room temperature (20-24° C.) in a blood bank rocking plane as for regular blood bank under air with gas exchange option (AIR); or sealed under nitrogen atmosphere (N2) or carbon monoxide atmosphere (CO). […] The amount of inoculated bacteria was adjusted to a range of 10-100 CFU/ml before inoculation, in which the exact final number of bacteria was been measured by plating the stock on suitable agar plates allowing growth and counting (the final initial counts are given in each case).

[3] = tested on: Bulkholderia cepasea; assay: Growth of inoculated Bulkholderia cepasea in platelets stored as PRP; type: cell-based; settings: 20-24° C., inoculated at 12 CFU/ml, compared with air (FIG. 5)
Description: as §2, §3, §4

[4] = tested on: Pseudomonas aeraginosa; assay: Growth of inoculated Pseudomonas aeraginosa in platelets stored as PRP; type: cell-based; settings: 20-24° C., inoculated at 16 CFU/ml, compared with air (FIG. 4)
Description: as §2, §3, §4

[5] = tested on: Salmonella thyphimurium; assay: Growth of Salmonella thyphimurium in PRP or PC fractions; type: cell-based; settings: compared with air (FIG. 7)
Description: (§5) PC fractions were identically prepared from CO pretreated or untreated blood by consecutive centrifugation in a sterile environment using blood bank conditions. Bicarbonate (4% of PC volume) is than added from a stock solution of 750 mM while agitation to yield a final bicarbonate concentration of 30 mM. Next, the PC is treated with CO in a similar manner to whole blood. Alternatively, rather than applying a vacuum, the containers were flushed for 10 min. with sterile CO while agitating the containers, which were then sealed. The containers were allowed to stay at room temperature of 20-24° C.PRP platelets were treated similarly.
(§6) Control blood samples were packed under air in the same containers without any additional treatment allowing air transfer. In some experiments control of inert gas like nitrogen were used to exchange the air in the same manner as CO.
as §1, with “plasma. […]” for “plasma.”

[6] = tested on: Yersinia Enterocolitica; assay: Growth of inoculated Yersinia Enterocolitica in whole blood under different atmospheres; type: cell-based; settings: room temperature, about 20 bacteria per ml inoculated, compared with air (FIG. 1)
Description: Freshly drawn whole blood was obtained from a human donor under sterile conditions, and stored in gas impermeable bags having a volume of at least 1.5 times that of the blood volume. The gas environment (or atmosphere) in the bag was then replaced by an atmosphere containing sterile CO by applying a low level vacuum with a water pump of 20 mm Hg. CO was immediately flushed through a 0.25 micron sterile filter. The bag was sealed and agitated for 15 minutes to allow equilibration. This procedure was repeated three times thereby exchanging the atmosphere in the bag and blood with CO. Saturation with carbon monoxide can be identified in hemoglobin in samples of the treated blood according to typical changes of the light absorption spectrum of the hemoglobin in the visible region by a shift from 577 nm (typical of oxy-hemoglobin) to 569 nm (typical of carbomonoxy-hemoglobin).
as §6
Whole blood or its factions were inoculated with pathogenic bacteria. Growth of the bacteria at room temperature was followed under different atmospheres (gas environments ). […]

[7] = tested on: E. coli (strain O 157); assay: Growth of inoculated E. coli in platelets stored as PRP; type: cell-based; settings: 20-24° C., inoculated at 25 CFU/ml, compared with air (FIG. 3)
Description: as §2, §3, §4

[8] = tested on: Bacilus cereus; assay: Growth of inoculated Bacilus cereus in platelets stored as PRP; type: cell-based; settings: 20-24° C., inoculated at 18 CFU/ml, compared with air (FIG. 2)
Description: as §2, §3, §4

[9] = tested on: platelets; settings: via binding to Guanylate Cyclase; Brune and Ullrich 1987; cited from earlier work
[10] = tested on: platelets; assay: Platelet viability: leakage of LDH from stored platelets; type: cell-based, human
Description: as §5
The viability of the platelets under storage was tested in the form of PC because platelets are currently stored in this form, in order to be able to store and use the extra plasma in PRP separately. However, the PC environment lacks both red cells and plasma, such that platelets in this environment are more sensitive than in the PRP form to loss of viability. Without wishing to be limited to a single hypothesis, platelets in the form of PC may experience changes in pH, and therefore may lose the necessary pH neutrality of the environment. The viability of platelets stored as PC was investigated according to two parameters: drop of pH of the environment, and loss of membrane integrity of the cells themselves, leading to leakage of cellular proteins.
With regard to leakage of LDH, cell viability can also be evaluated according to membrane integrity. LDH (lactic dehydrogenase) is a stable enzyme which is normally active inside cells; when these cells have loss of membrane integrity, LDH is leaked outside the cells, such that higher levels of LDH activity are correlated with reduced platelet viability. The presence of LDH activity in platelet-free solution samples was measured in order to assess the viability of the platelet-containing fractions from which the samples were taken. […]

[11] = tested on: platelets; assay: Ability of stored platelets to aggregate upon activation by collagen (Plateletworks kit); type: cell-based, human
Description: An assessment of the potential of platelets to form aggregates upon activation by an agonist, preferably collagen, a typical physiological agonist, was performed, to determine the potential effect of carbon monoxide on this physiological function of platelets. The assay was performed as follows.
Fresh blood bank platelets, prepared as platelet concentrates (PC), were used. Each PC unit was divided. One part was stored without carbon monoxide treatment, which is the current method of preserving PC in blood banks. The other portion was sealed under carbon monoxide as previously described. Samples were preserved under sterile conditions at 20-23° C., while shaking gently. The ability of platelets to aggregate upon activation by collagen as an agonist was tested daily using a kit by Helena Laboratories (USA), called the Plateletworks kit. To allow platelet count and reduce anticoagulant activity, the PC was diluted 1:10 with the physiological buffer PBS pH 7.3. The whole individual platelets present were counted prior and after addition of the agonist, for this example collagen.
Therefore, the stored PC samples (control and stored under carbon monoxide) were tested for their ability to aggregate following two hours shaking under air after being removed from storage.

[12] = tested on: human body; settings: cited from earlier work
[13] = tested on: platelets; settings: autologous transfusions performed in primates; cited from earlier work
[14] = tested on: bacteria; settings: upon photoactivation; Gambro BCT abstracts 2001; cited from earlier work

SMILES	growth of Salmonella thyphimurium in cells-free plasma [1]	growth of Staphilococcus aereus in PRP [2]	growth of Bulkholderia cepasea in PRP [3]	growth of Pseudomonas aeraginosa in PRP [4]	growth of Salmonella thyphimurium in PC ([5]; PC, count at time zero 32 CFU/ml)	growth of Salmonella thyphimurium in PRP ([5]; PRP, count at time zero 16 CFU/ml)	growth of inoculated Yersinia Enterocolitica in whole blood [6]	growth of E. coli (strain O 157) in PRP [7]	growth of Bacilus cereus in PRP [8]	aggregation of platelets [9]	LDH activity in the supernatant, a measure of leakage ([10]; PC, air vs CO vs CO with sodium bicarbonate (FIG. 10))	viability of platelets in PC (LDH leakage) ([10]; PC, no additional bicarbonate, compared with air (FIG. 10))	leakage of LDH (LDH activity in supernatant), platelets stored as PRP ([10]; PRP, compared with air, data not shown)	ability to aggregate in response to collagen ([11]; PC stored under carbon monoxide, carbon monoxide replaced by air)	formation of aggregates upon exposure to collagen ([11]; PC stored under carbon monoxide, tested immediately after being exposed to air)	fraction of platelets able to form aggregates ([11]; PC, day 11, two hours shaking under air after storage, compared with same PC unit stored under air (FIGS. 11A-11C))	safety threshold or TLV, equivalent inhalation ([12]; equivalent of 8 hours per day at 20 ppm)	safety threshold or TLV for the human body ([12]; inhalation of 8 hours per day of air containing the gas) [ppm]	platelet survival rates [13]	effectiveness for bacterial inactivation [14]
[C-]#[O+] [carbon monoxide]	inhibition of pathogen growth was maintained	significantly inhibited	eliminated	significantly inhibited	inhibited	significantly inhibited	completely inhibited	significantly inhibited	significantly inhibited	can inhibit aggregation	similar, high levels	lost much faster than stored in air	equal or even somewhat lower than under air	regained their ability to aggregate	did not form aggregates	larger fraction	10^4 ppm/minute	20		
N#N [nitrogen, reference compound]		little or no effect	little or no effect	little or no effect			completely inhibited	little or no effect	little or no effect											
Cc1cc2nc3c(=O)[nH]c(=O)nc-3n(C[C@H](O)[C@H](O)[C@H](O)CO)c2cc1C [riboflavin]																			may even decrease platelet survival rates	variable effectiveness
